In US8653049B2, “Normuramyl glycopeptide compounds” (priority 2008, dated 2014):
Where “and” joins values, the source holds several entries; their conditions need not be identical. Equal values may be shown once. Entries after “also recorded” stand apart in the source; their conditions may differ.

How the values were obtained:
Salmonella enteritidis = assay: Stimulation of innate immunity against Salmonella Enteritidis; conditions: for protective effect / survival rate in S. Enteritidis infection: 0 or 1 case of death by day 12; for Day 6 Intest.: clear/infected/dead / Day 6 Liver: clear/infected/dead / Day 6 Lungs: clear/infected/dead / Day 6 Spleen: clear/infected/dead / Day 12 Intest.: clear/infected/dead / Day 12 Liver: clear/infected/dead / Day 12 Lungs: clear/infected/dead / Day 12 Spleen: clear/infected/dead: liposomal, 20 nmol per dose p.o. 72 and 24 h before infection (LD50), 5 mice
[1] = rabbits, liposomal preparations s.c. 100 nmol/kg, 3 rabbits per group; passes if below 1.1° C.
Method in brief: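 Pyrogenicity was tested in New Zealand albino rabbits (3 per group) given liposomal preparations at 100 nmol/kg s.c., with temperature taken at 1, 2, 3, 4, 6 and 24 h. Controls were empty liposomes, liposomal and free MDP (50.7 nmol/kg) and B30-norAbu-MDP. A pass required summed ΔTmax below 1.1 °C.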

[2] = Survival after lethal irradiation (10 Gy); format: in vivo, mice (strain ICR); conditions: 200 nmol s.c. 24 h before 10 Gy; FIG. 37
Experimental: Preparations (200 nmol of active substance) were applied to mice (strain ICR, female, 3 months of age, 10 mice per group) by s.c. route 24 h before irradiation (radiation dose of 10 Gy from a ^60Co gamma-ray source at a dose rate of 0.285 Gy/min). PBS and empty liposome served as negative controls, free and liposomal muramyl dipeptide (MDP) served as positive controls.

[3] = system: granulocyte-macrophage progenitor cells (GM-CFC); assay: Colony stimulating activity (CSA) of serum on GM-CFC; format: in vivo, mouse; conditions: liposomal compounds; FIG. 32
Experimental: Determination of Colony stimulating activity (CSA) and co-stimulating activity (CoSA) in serum: Blood was taken at intervals from 5 to 48 h after injection of the test compounds, and the ability of the sera from treated mice to stimulate in vitro growth of colonies from granulocyte-macrophage progenitor cells (GM-CFC) was determined. CoSA was determined as the ability of tested compounds, sera of treated mice, or conditioned medium from cultures of adherent stromal cells to enhance the number of GM-CFC colonies induced by a sub-optimal concentration of rmIL-3 in the above-described GM-CFC assay. The concentration of rmIL-3 was adjusted to a value which yielded one third of the maximum number of colonies on a dose-dependent curve.

[4] = system: NK sensitive K562 cell line; assay: NK cell cytotoxicity of human PBMC, 51Cr-release against K562; format: cell-based
Method in brief: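 Healthy-donor PBMC effectors were tested in a 4 h 51Cr-release assay at effector:target 16:1, with or without compound at 10^−7 mol/ml. Cytotoxicity was renormalized to untreated controls set at 100%.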

[5] = system: GM-CFC progenitors in bone marrow; assay: GM-CFC recovery, test compounds before sub-lethal irradiation; format: in vivo, ICR/CD-1 mice; conditions: s.c. 100 nmol 24 h before 6 Gy, day 13, FIGS. 33-35
Experimental: Institite of Cancer Research (ICR/CD-1) mice (female, age of 3 months, 3-4 per group) were stimulated by s.c. administration of test compounds (volume of 200 μl, 100 nmol per dose) 24 h before sublethal γ-irradiation (6 Gy, ^60Co γray source Chisostat, Chirana Ltd., Czech Republic, at a dose of 0.285 Gy/min.). Mice were sacrified at day 13 and recovery of GM-CFC in femour was assayed by counting of colonies (CFC) formed after cultivation in medium. Non-irradiated mice were used as control for normal GM-CFC count in femour. PBS and empty liposomes were used as controls for spontaneous recovery. Liposomal MDP was used as reference standard.
The following parameters of hemopoiesis were evaluated: • a) Blood leukocyte counts and bone marrow cellularity. Blood leukocytes (samples of blood drawn from an incision of the tail vein) and nucleated cell elements of the femoral bone marrow (femoral diaphyses flushed with saline) were estimated by means of Coulter Counter (Model ZN, Coulter Electronics). • b) Colony-forming cells in spleen. Endogenous spleen colony-forming units (E-CFUs) were measured on day 9 post the whole-body irradiation with 6.5 Gy (5 mice per group) according to Till and McCulloch. • c) GM-CFC progenitors in bone marrow. Femoral bone marrow cells were obtained from mice by flushing the femour with sterile IMDM medium. Harvested cells were calculated and diluted to 1.5×10^5 cells/ml and plated in triplicate in a semisolid environment created by plasma clot (Iscovess modification of Dulbecco's medium, 20% of fetal calf serum, 10% of colony-stimulating factor, 10% of citrate plasma, and CaCl2 1.5 mg/ml). The cultures were incubated for 7 days at 37° C. in 5% CO2. Colonies of at least 50 cells were scored at 40× magnification.
Statistical significance between individual experimental groups of mice in hemopoietic parameters was calculated by one-way analysis of variance. The Newman-Keuls test for comparison of all pairs of columns and the Dunnett test for comparison of all columns with the control column were used in the analysis.

[6] = system: Friend leukemia virus (FLV); assay: Friend leukemia virus infection: survival, TER-119+ cells, spleen; conditions: day 16; FIG. 24
[7] = system: NK-sensitive YAC1 target cells; assay: NK cell-mediated cytotoxicity of spleen mononuclear cells, 51Cr-release against YAC1; conditions: FLV-inoculated mice, day 16, 18 h incubation with YAC1; FIG. 26
[8] = system: r-hsp90 (Candida albicans hsp90) specific IgG antibodies; assay: Proteoliposome vaccine against C. albicans hsp90: antibody (humoral) response, ELISA; format: in vivo, BALB/c mice; conditions: Experiment 12.2; liposomal compound (5%) + Ni-HSP90, boost day 14; FIG. 13
Experimental: Proteoliposomes were prepared by coupling recombinant hsp90 antigen (r-hsp90, 6×HISTag) via a metal chelating lipid to liposomes containing muramyl glycopeptide derivatives as adjuvant component. BALB/c […] mice 4 to 5 weeks old (female 20±2 g, 5 animal per group) were immunized by the intradermal route either with 20 μg of free or liposomal r-hsp90 (volume of 60 μl) either with or without L18-norAbu-MDP and boosted 21 days later by the same composition of experimental vaccine. FCA was used as positive control r-hsp90. Liposomal vaccine composition 20 μg of rHSP90 antigen, 5% metallochelating lipid, 5% particular MT analogue, 90% phospolipids.
Blood samples were collected from the tail vein into heparinised capillary PCV tubes. After centrifugation, the upper part of the tube, containing […] blood serum, was cut off, thrown into […] diluting solution and thoroughly shaken. Thus, a basic dilution of 1:33 was obtained. The pre-diluted sera were kept at −20° C. Blood samples were collected before the first immunization, 2 weeks thereafter and subsequently at weekly intervals up to the 4th week after the second immunisation. Specific IgG antibodies in blood serum samples were determined by the standard indirect ELISA procedure. The data obtained were processed statistically using the non-parametric Mann-Whitney U-test.
Proteoliposomes with muramyl glycopeptide derivatives were prepared as described above, but the boost was carried out already after 14 days. The liposomal vaccine composition was as for Experiment Set 1: 20 μg of rHSP90 antigen, 5% metallochelating lipid, 5% particular MT analogue, 90% phospolipids.
Controls: Aluminum hydroxide (AlOH) and Freund complete adjuvans (FCA) were used as positive controls. PBS with empty liposomes was used as negative control (control). Humoral response was tested at day 14 after vaccination (post priming) and at day 20 after vaccination (post booster). Antibody titres were wer assayed by ELISA.

[9] = system: Trichophyton mentagrophytes TM 179; assay: Adjuvant activity for hsp60 DNA vaccine against ringworm; format: in vivo, guinea pigs; parameters: key: semi-quantitative 0 to +++ method (where U=ulceration) for evaluation of dermal reactions, i.e. pathological lesions; semi-quantitative 0 to +++ method (where U=ulceration) for evaluation of dermal reactions, i.e. pathological lesions; semi-quantitative 0 to +++ method (where U=ulceration) for evaluation of dermal reactions, i.e. pathological lesions; semi-quantitative 0 to +++ method (where U=ulceration) for evaluation of dermal reactions, i.e. pathological lesions; U=ulceration; conditions: per animal
S. typhimurium = assay: Stimulation of innate immunity against Salmonella Typhimurium; format: in vivo, BALB/c mice; conditions: liposomal preparations
Text: Test compounds at doses of 5, 10, 25, 50, 100 and 200 nmol per mouse were applied in., s.c., i.v., or p.o. 3 and 1 days before experimental infection (10 animals per group). Various organs (intestines, liver, spleen, lungs) were examined for the presence of salmonellae on day 30 post infection. Results were expressed as numbers of colony forming units (CFU) of S. typhimurium per 1 gram of tissue. Statistically significant differences in numbers of CFU between the individual experimental groups were calculated by one-way analysis of variance.

C. albicans strain 2091 = assay: Stimulation of innate immunity to Candida albicans infection, survival; conditions: s.c. 24 h after i.v. infection, vs PBS control, FIG. 20
[10] = group 1: 200 μg adjuvant at −48 h + 20 μg DNA
[11] = group 2: 200 μg adjuvant at −24 h + 20 μg DNA
[12] = group 3: 200 μg adjuvant at 0 h + 20 μg DNA
[13] = group 4: 200 μg adjuvant at +24 h + 20 μg DNA

In the case of `CCCCCCCCCCCCCCCCCC(=O)NCCCC[C@H](NC(=O)CC[C@@H](NC(=O)[C@H](CC)NC(=O)CO[C@H]1[C@H](O)[C@@H](CO)OC(O)[C@@H]1NC(C)=O)C(N)=O)C(=O)O` (stereo partly drawn) [Compound 32, N-[2-O-(2-Acetamido-2,3-dideoxy-α-D-glucopyranosid-3-yl)-glycoloyl]-L-α-aminobutanoyl-D-isoglutaminyl-L-lysine(stearoyl)], the “protective effect / survival rate in S. Enteritidis infection” value (Salmonella enteritidis) is reported as “good protective effects”, the “Day 6 Intest.: clear/infected/dead” value (Salmonella enteritidis) is reported as 5/0/0 and the “Day 6 Liver: clear/infected/dead” value (Salmonella enteritidis) is reported as 3/2/0. The “Day 6 Lungs: clear/infected/dead” value (Salmonella enteritidis) was 4/1/0, the “Day 6 Spleen: clear/infected/dead” value (Salmonella enteritidis) was 3/2/0 and the “Day 12 Intest.: clear/infected/dead” value (Salmonella enteritidis) was 2/3/0. The “Day 12 Liver: clear/infected/dead” value (Salmonella enteritidis) was 1/4/0, the “Day 12 Lungs: clear/infected/dead” value (Salmonella enteritidis) was 4/1/0 and the “Day 12 Spleen: clear/infected/dead” value (Salmonella enteritidis) was 1/4/0. For the same molecule, the “+ΔTmax (Sum of ΔTmax)” value [1] was 0.5 °C, the “survival of lethally irradiated mice” value [2] was “best compound; also recorded: best performance” and the “GM-CFC stimulating activity (CSA) in serum” value [3] was “substantially better”. For the same molecule, the “lag time to reach full NK stimulating activity” value ([4]; no vs 18 h pre-incubation) was “most pronounced”, the “dose response of NK cell activity” value ([4]; range 0.1 μM-100 μM, FIG. 28) was “negative dose response” and the “GM-CFC progenitor cells in bone marrow” value [5] was “strongest effect”. For the same molecule, the “GM-CFC progenitor cells in bone marrow” value ([5]; listed as compound 32) was “best compound”, the “clonal expansion of TER-119+ erythroleukaemia cells in spleen” value [6] was “dose-dependent, positive effect” and the “NK cell activity (cell-mediated cytotoxicity of SMCs)” value [7] was “stimulate NK cell functional activity”. For the same molecule, the “antibody response to r-hsp90 proteoliposomes” value [8] was “strong and comparable to AlOH”.

In the case of `CCCCCCCCCCCCCCC(CCCCCCCCCCCCCC)C(=O)OC[C@H]1OC(O)[C@H](NC(C)=O)[C@@H](OCC(=O)N[C@@H](CC)C(=O)N[C@H](CCC(=O)O)C(N)=O)[C@@H]1O` (some centres unmarked) [B30-norAbu-MDP], the “Skin reaction Day 12” value ([9]; group 1: 200 μg adjuvant at −48 h + 20 μg DNA electroporation prime and boost) is reported as “+ and ++”, the “Skin reaction Day 21” value [9, 10] is reported as “+++ (2×) and ++ (2×)” and the “Skin reaction Day 28” value [9, 10] is reported as “+”. The “Skin reaction Day 12” value ([9]; group 2: 200 μg adjuvant at −24 h + 20 μg DNA electroporation prime and boost) was “+++ (2×) and ++”, the “Skin reaction Day 21” value [9, 11] was “++ (2×) and + (2×)” and the “Skin reaction Day 28” value [9, 11] was “+ (2×) and 0”. The “Skin reaction Day 12” value ([9]; group 3: 200 μg adjuvant at 0 h + 20 μg DNA electroporation prime and boost) was “+++ and + (2×)”, the “Skin reaction Day 21” value [9, 12] was “+” and the “Skin reaction Day 28” value [9, 12] was 0. For the same molecule, the “Skin reaction Day 12” value ([9]; group 4: 200 μg adjuvant at +24 h + 20 μg DNA electroporation prime and boost) was “+++ and + (2×)”, the “Skin reaction Day 21” value [9, 13] was “++” and the “Skin reaction Day 28” value [9, 13] was “+ (2×) and 0 (2×)”. The “protective effect / survival rate in S. Enteritidis infection” value (Salmonella enteritidis) was “good protective effects”, the “Day 6 Intest.: clear/infected/dead” value (Salmonella enteritidis) was 5/0/0 and the “Day 6 Liver: clear/infected/dead” value (Salmonella enteritidis) was 4/1/0. For the same molecule, the “Day 6 Lungs: clear/infected/dead” value (Salmonella enteritidis) was 5/0/0, the “Day 6 Spleen: clear/infected/dead” value (Salmonella enteritidis) was 4/1/0 and the “Day 12 Intest.: clear/infected/dead” value (Salmonella enteritidis) was 4/0/1. The “Day 12 Liver: clear/infected/dead” value (Salmonella enteritidis) was 4/0/1, the “Day 12 Lungs: clear/infected/dead” value (Salmonella enteritidis) was 4/0/1 and the “Day 12 Spleen: clear/infected/dead” value (Salmonella enteritidis) was 4/0/1. For the same molecule, the “+ΔTmax (Sum of ΔTmax)” value [1] was 0.5 °C, the “induction of immune responses in intestines” value (S. typhimurium) was “able to induce immune responses in intestines” and the “survival time and survival rate in C. albicans infection” value (C. albicans strain 2091; listed as free (non-liposomal) B30-norAbuMDP) was “lesser effect”. For the same molecule, the “survival time and survival rate in C. albicans infection” value (C. albicans strain 2091; listed as free B30-Nor-abuMDP) was “No effect”.
